Measurements published in patent US8754257B2, “Pharmaceutical-grade ferric organic compounds, uses thereof and methods of making same” (GloboAsia, LLC, priority 2003, dated 2014).
“Also recorded” adds a separate entry of the source.

How the values were obtained:
[1] = test system: patients with kidney disease; conditions: patients with kidney disease receiving doses of ferric citrate; cited from earlier work
[2] = test system: patients with End Stage Renal Disease (ESRD); conditions: cited from earlier work
[3] = Intrinsic dissolution rate of ferric citrate; type: physicochemical; conditions: for Intrinsic Dissolution Rates: 37° C., solutions of pH 8
From the text: The intrinsic dissolution rate is defined as the dissolution rate of pure substances under the condition of constant surface area. […] The measured intrinsic dissolution rate is dependent on these solid-state properties and is typically determined by exposing a constant surface area of a material to an appropriate dissolution medium while maintaining constant temperature, stirring rate, and pH.

[4] = BET active surface area measurement; type: physicochemical; conditions: for BET Active Surface Area: Table 2, one value per pair of samples -1/-2
Method: The analysis of active surface area is based on BET theory which describes the phenomenon of mass and energy interaction and phase changes during as adsorption onto solid surfaces and in pore spaces. In BET active surface area measurement, the volume of a monolayer of gas is determined which allows the surface area of the sample to be determined using the area occupied by a single layer of adsorbed gas molecule.

patients = test: Clinical study of pharmaceutical-grade ferric citrate in patients in vivo; parameters: species or system human
Method: Ferric citrate is supplied in 500 mg capsules, whereas the placebo will be provided in identical-looking capsules (indistinguishable from those containing the active drug); the placebo capsules will contain sorbitol and colorant to match the powder color of the active capsules. The placebo capsule shells will be identical to the active capsule shells.
An non-limiting example of a dosing regimen is provided below. This is not meant to limit the invention as to how an effective amount of ferric citrate is selected, or the form in which it is provided or the frequency of administering the composition per day. The following merely illustrates how ferric citrate and placebo may be administered; e.g., as 500 mg capsules of identical appearance. All patients may receive (in a blinded fashion) 4 capsules with each of three meals, on a daily basis, for 28 days. Patients will be instructed to take the study medication within 10 minutes of finishing their meals (breakfast, lunch, and dinner).
• 4 placebo capsules, with breakfast. • 4 placebo capsules, with lunch. • 4 placebo capsules with dinner Ferric Citrate 2 g Per Day Arm of the Study • 1 ferric citrate capsule and 3 placebo capsules with breakfast • 1 ferric citrate capsule and 3 placebo capsules with lunch • 2 ferric citrate capsules and 2 placebo capsules with dinner Ferric Citrate 4 g Per Day Arm • 2 ferric citrate capsules and 2 placebo capsules with breakfast • 3 ferric citrate capsule and 1 placebo capsule with lunch • 3 ferric citrate capsules and 1 placebo capsule with dinner Ferric Citrate 6 g Per Day Arm • 4 ferric citrate capsules with breakfast • 4 ferric citrate capsules with lunch • 4 ferric citrate capsules with dinner B. Clinical Schedule and Assessments Duration of Study Treatment
Each patient's participation in the trial lasts for up to 8 weeks: the screening period (approximately 1-2 weeks), a 1-2 week washout, and 4 weeks of treatment with study medication.
The following procedures will be performed at the first screening visit: • 1. Medical history, including concomitant medications. • 2. Demographic data • 3. Physical examination, including height, weight, and vital signs. • 4. Dietary interview, using 24 hour recall method, to assess dietary intake of calcium and phosphorous, three times during screening period, to include one dialysis day, one non-dialysis day, and one weekend day. Note: Dietary interview may be also performed, in part or in whole, during the washout period. • 5. […]

ferric citrate
calcium deposits on the eye [1]: reversal of calcium deposits on the eye | GI symptoms ([2]; 3 g daily): mild, hut tolerable GI symptoms | change in serum P04 ([2]; 3 g daily): significant decrease in serum P04 | efficacy in reducing serum P04 compared with calcium carbonate (3 g daily) [2]: not as effective as calcium carbonate

ferric citrate [PAN031203A]
Intrinsic Dissolution Rates [3]: 3.82 mg/cm2/min

ferric citrate [PAN031203B]
Intrinsic Dissolution Rates [3]: 4.00 mg/cm2/min

ferric citrate [PAN031203C]
Intrinsic Dissolution Rates [3]: 2.68 mg/cm2/min

ferric citrate [PAN031203D]
Intrinsic Dissolution Rates [3]: 2.95 mg/cm2/min

ferric citrate [PAN031203E]
Intrinsic Dissolution Rates [3]: 3.13 mg/cm2/min

ferric citrate [RFS-12-1, reference compound]
BET Active Surface Area [4]: 0.61

ferric citrate [STM-134-1]
BET Active Surface Area [4]: 16.17

ferric citrate [STM-134]
Intrinsic Dissolution Rates [3]: 1.88 mg/cm2/min

ferric citrate [STM-182-1]
BET Active Surface Area [4]: 19.85

ferric citrate [ferric citrate of the present invention]
dissolution rate compared with commercially available ferric citrate ([3]; experiment simulating the alkaline condition in the small intestine): better dissolution rate than the commercially available ferric citrate | intrinsic dissolution rate relative to commercially available ferric citrate ([3]; pH 8.0): 3.08 times | BET active surface area relative to commercially available ferric citrate [4]: at least 16 times | adverse side effects compared with placebo (patients; FIG. 12): not statistically different from chose associated with the placebo | adverse side effects / safety profile compared with chemical grade ferric citrate (patients; oral capsules, FIG. 12, listed as pharmaceutical grade ferric citrate): less adverse clinical effects; also recorded: significantly more desirable safety profile | adverse side effects / safety profile compared with chemical grade ferric citrate (patients; oral capsules, FIG. 12, listed as pharmaceutical-grade ferric citrate): less adverse side effects than chemical grade ferric citrate | efficacy compared with chemical grade ferric citrate (patients; oral capsules, FIG. 13, listed as pharmaceutical-grade ferric citrate): approximately equal so that of chemical grade ferric citrate
